System: Proteus mirabilis 29906 (Pm) lysate
Test: Inhibition of formation of TMA from choline in Proteus mirabilis lysate (d9-choline to d9-TMA, LC-MS/MS)
Assay type: biochemical
Details: conversion of choline to TMA; Pm lysate 1.5 mg/mL protein, 50 μM d9-choline chloride, 37° C., two hours; read-out: TMA Inhibition (IC50, mol/L)
Method: EXAMPLE 2 Assay for identifying and characterizing compounds that inhibit the formation of TMA from choline.
This example provides an exemplary assay for identifying and characterizing compounds that inhibit the formation of TMA from choline.
Proteus mirabilis 29906 (Pm) strain was grown aerobically overnight in 500 ml of Nutrient Broth media (3 g/L beef extract, 5 g/L Peptone; Difco #234000) at 37° C. with 250 rpm shaking. The biomass was pelleted by centrifugation at 6000×g for 12 minutes at 4° C. The cell pellet was suspended in 240 mL of ice-cold 1× Phosphate Buffered Saline (Ca^2+ and Mg^2+ free). Ninety micrograms of Lysozyme (Sigma #L6876 Lot #SLBG8654V; Sigma-Aldrich Corp., St. Louis, Mo.) was added and incubated with 320 rpm shaking for 30 minutes at 4° C. Lysis was achieved via French press with a 4° C. prechilled 1″ diameter chamber at 1000 psi (high ratio; internal PSI equivalent ˜16000). The lysate was centrifuged at 6,000×g for 12 minutes at 4° C. to pellet extra debris. A protein concentration of the centrifuged lysate supernatant was determined by a BCA Protein Assay Kit (Pierce #23225; Thermo Fisher Scientific Co., Waltham, Mass.) and protein concentration adjusted to 3 mg/ml with 1× Dulbecco's phosphate buffered saline (DPBS). The centrifuged supernatant lysate was aliquoted into 20 mL volumes and stored frozen at −80° C.
Proteus mirabilis 29906 (Pm) lysate was diluted to 1.5 mg/mL protein with 1×DPBS. Choline chloride (CC) (1M stock) was added to reach a final concentration of 2.5 mM choline chloride. The mixture was mixed using a vortex mixer for approximately 15 seconds and incubated at 37° C. for 22 hours. After incubation, 150 μL of CC-treated Pm lysate was dispensed into a deep-well plate (polypropylene, 2 mL volume, Corning Axygen catalogue #P-DW-20-C). Candidate IC50 compounds from TABLE 1 and vehicle control (respective vehicle control of DMSO or water), or control compounds (IC50 control, 8-Quinolinol hemisulfate salt (Sigma Catalog #55100)) were added at a 1:100 dilution (e.g., 1.5 μL per well). The plates were agitated on a plate shaker for 1 minute. d9-choline chloride (1.5 μL of 5 mM) was added to all wells to reach a final d9-choline chloride concentration of 50 μM.
The plates were again agitated on a plate shaker for 1 minute and incubated at 37° C. for two hours. After incubation, 1.5 μL of formic acid was added to each well (final concentration=1% formic acid). The plates were agitated on a plate shaker for 1 minute and placed on ice. Cell lysate samples were spiked with stable isotope labeled internal standard (22.5 μL of 6 μg/mL of 13C3-trimethylamine (13C3-TMA) was added to each sample), then d9-trimethylamine (d9-TMA), trimethylamine (TMA) and 13C3-TMA were isolated from the lysate after protein precipitation as described below. Acetonitrile acidified with 0.1% formic acid, 600 μL, was added to each sample which was then centrifuged (2,100 g for 20 minutes) to pellet the protein and other precipitates. The supernatant was removed and analyzed as described below. The TMA, d9-TMA and 13C3-TMA in the isolated supernatant samples were subjected to gradient High Performance Liquid Chromatography (HPLC) analysis on a Waters Atlantis HILIC Silica column, from Waters Corp., Milford, Mass., (2.1×50 mm, 3 μm particles) with an Atlantis Silica HILIC Sentry guard column, from Waters Corp., Milford, Mass., (100 Å, 3 μm, 2.1 mm×10 mm), 10 mM ammonium formate in water with 0.1% formic acid as mobile phase A and 0.1% formic acid in acetonitrile as mobile phase B. Detection and quantitation was achieved by tandem mass spectrometry operating under multiple reaction monitoring (MRM) MS/MS conditions (m/z 60.1→44.1 for TMA, m/z 69.1→49.1 for d9-TMA, m/z 63.0→46.1 for 13C3-TMA). TMA and d9-TMA calibration standards (STD), prepared in 80/20/0.1% acetonitrile/Water/Formic Acid, were used to construct a regression curve by plotting the response (peak area TMA/peak area 13C3-TMA) versus concentration for each standard. […]

`CC[N+](CC)(CCCN=C=S)CCOc1ccccc1` [Compound 10, N-(2-Phenoxyethyl)-3-isothiocyanato-N,N-diethylpropan-1-aminium triflate] gave an IC50 of 29.6 µM.

`C[N+](C)(CCN=C=S)CCOCc1ccccc1` [Compound 11, N-(2-Benzyloxyethyl)-2-isothiocyanato-N,N-dimethylethan-1-aminium triflate] gave an IC50 of 16.1 µM.

For `CC[N+](CC)(CCCN=C=S)CCOCc1ccccc1` [Compound 12, N-(2-Benzyloxyethyl)-3-isothiocyanato-N,N-diethylpropan-1-aminium triflate], the IC50 was 29.1 µM.

For `C[N+](C)(CCN=C=S)CCOc1ccccc1` [Compound 13, N-(2-Phenoxyethyl)-2-isothiocyanato-N,N-dimethylethan-1-aminium triflate], the IC50 was 1.33 µM.

`C[N+](C)(CCBr)CCN=C=S` [Compound 14, N-(2-Bromoethyl)-2-isothiocyanato-N,N-dimethylethan-1-aminium triflate] showed an IC50 of 24.9 µM.

Molecule `C[N+](C)(CCN=C=S)CC1CO1` (stereo not drawn) [Compound 15, N-(Oxiranylmethyl)-2-isothiocyanato-N,N-dimethylethan-1-aminium triflate] has an IC50 of 194 µM.

`CC[N+](CC)(CCCN=C=S)CC1CO1` (stereo not drawn) [Compound 16, N-(Oxiranylmethyl)-3-isothiocyanato-N,N-diethylpropan-1-aminium triflate] gave an IC50 of 39.8 µM.

With `COCC[N+](C)(C)CCN=C=S` [Compound 17, N-(2-Methoxyethyl)-2-isothiocyanato-N,N-dimethylethan-1-aminium triflate] the IC50 was 31.6 µM.

Work on `CC[N+](CC)(CCCN=C=S)CCOC` [Compound 18, N-(2-Methoxyethyl)-3-isothiocyanato-N,N-diethylpropan-1-aminium triflate] yielded an IC50 of 39.8 µM.

For `CCOCC[N+](C)(C)CCN=C=S` [Compound 19, N-(2-Ethoxyethyl)-2-isothiocyanato-N,N-dimethylethan-1-aminium triflate], the IC50 was 63.1 µM.

`CCOCC[N+](CC)(CC)CCCN=C=S` [Compound 20, N-(2-Ethoxyethyl)-3-isothiocyanato-N,N-diethylpropan-1-aminium triflate] gave an IC50 of 19.9 µM.

`COCCC[N+](C)(C)CCN=C=S` [Compound 21, N-(3-Methoxypropyl)-2-isothiocyanato-N,N-dimethylethan-1-aminium triflate] gave an IC50 of 31.6 µM.

`CC[N+](CC)(CCCN=C=S)CCCOC` [Compound 22] was tested, and the IC50 was 31.6 µM.

With `C[N+](C)(CCCl)CCN=C=S` [Compound 23, N-(2-Chloroethyl)-2-isothiocyanato-N,N-dimethylethan-1-aminium triflate] the IC50 was 25.1 µM.

Molecule `C[N+](C)(CCCCl)CCN=C=S` [Compound 24, N-(3-Chloropropyl)-2-isothiocyanato-N,N-dimethylethan-1-aminium triflate] has an IC50 of 63.1 µM.

Molecule `CC[N+](CC)(CCCl)CCCN=C=S` [Compound 25, N-(2-Chloroethyl)-3-isothiocyanato-N,N-diethylpropan-1-aminium triflate] has an IC50 of 19.9 µM.

Work on `CC[N+](CC)(CCCCl)CCCN=C=S` [Compound 26, N-(3-Chloropropyl)-3-isothiocyanato-N,N-diethylpropan-1-aminium triflate] yielded an IC50 of 50.1 µM.

Molecule `CC[N+](CC)(CCF)CCCN=C=S` [Compound 27, N-(2-Fluoroethyl)-3-isothiocyanato-N,N-diethylpropan-1-aminium triflate] has an IC50 of 31.6 µM.

For `S=C=NCC[n+]1ccccc1` [Compound 28, 1-(2-Isothiocyanatoethyl)pyridin-1-ium bromide], the IC50 was 31.6 µM.

For `Oc1ccc[n+](CCN=C=S)c1` [Compound 29, 1-(2-Isothiocyanatoethyl)-3-hydroxypyridinium bromide], the IC50 was 1260 µM.

Molecule `OCc1cccc[n+]1CCN=C=S` [Compound 30, 1-(2-Isothiocyanatoethyl)-(2-hydroxymethyl)pyridinium triflate] has an IC50 of 25.1 µM.

Molecule `OCc1cccc[n+]1CCCN=C=S` [Compound 31, 2-(hydroxymethyl)-1-(3-isothiocyanatopropyl)pyridin-1-ium trifluoromethanesulfonate] has an IC50 of 251 µM.

With `Oc1ccc[n+](CCCN=C=S)c1` [Compound 32, 3-hydroxy-1-(3-isothiocyanatopropyl)pyridin-1-ium trifluoromethanesulfonate] the IC50 was 1990 µM.

With `OCC[N+]1(CCN=C=S)CCCCC1` [Compound 33, 1-(2-hydroxyethyl)-1-(2-isothiocyanatoethyl)piperidin-1-ium trifluoromethanesulfonate] the IC50 was 200 µM.

`C[N+]1(CCN=C=S)CCCCC1CO` (stereo not drawn) [Compound 34, 2-(hydroxymethyl)-1-(2-isothiocyanatoethyl)-1-methylpiperidin-1-ium trifluoromethanesulfonate] gave an IC50 of 316 µM.

`OCC[N+]1(CCCN=C=S)CCCCC1` [Compound 35, 1-(2-hydroxyethyl)-1-(3-isothiocyanatopropyl)piperidin-1-ium trifluoromethanesulfonate] showed an IC50 of 1260 µM.

In the case of `C[N+](C)(CCO)CCCN=C=S` [Compound 36, N-(2-hydroxyethyl)-3-isothiocyanato-N,N-dimethylpropan-1-aminium trifluoromethanesulfonate], the IC50 is reported as 100 µM.

Work on `C#CC[N+](C)(C)CCN=C=S` [Compound 37, N-(2-isothiocyanatoethyl)-N,N-dimethylprop-2-yn-1-aminium bromide] yielded an IC50 of 1.99 µM.

Molecule `C=C(C[N+](C)(C)CCN=C=S)C(=O)OC` [Compound 38, N-(2-isothiocyanatoethyl)-2-(methoxycarbonyl)-N,N-dimethylprop-2-en-1-aminium bromide] has an IC50 of 14.1 µM.

In the case of `C[N+]1(CCN=C=S)CCC(O)CC1` (stereo not drawn) [Compound 39, 4-hydroxy-1-(2-isothiocyanatoethyl)-1-methylpiperidin-1-ium bromide], the IC50 is reported as 25.9 µM.

`C[N+]1(CCN=C=S)CCOCC1` [Compound 40, 4-Methyl-4-(2-isothiocyanatoethyl)morpholinium trifluoromethanesulfonate] showed an IC50 of 286 µM.

With `C[N+]1(CCN=C=S)CCCCC1` [Compound 41, 1-Methyl-1-(2-isothiocyanatoethyl)piperidium trifluoromethanesulfonate] the IC50 was 31.7 µM.

Molecule `S=C=NCC[N+]12CCC(CC1)CC2` [Compound 42, 1-(2-Isothiocyanatoethyl)quinuclidinium trifluoromethanesulfonate] has an IC50 of 12.1 µM.

`C[N+]1(CCCN=C=S)CCOCC1` [Compound 43, 4-Methyl-4-(3-isothiocyanatopropyl)morpholinium trifluoromethanesulfonate] showed an IC50 of over 1000 µM.

Work on `C[N+]1(CCCN=C=S)CCCCC1` [Compound 44, 1-Methyl-1-(3-isothiocyanatopropyl)piperidinium trifluoromethanesulfonate] yielded an IC50 of over 1000 µM.

`S=C=NCCC[N+]12CCC(CC1)CC2` [Compound 45, 1-(3-Isothiocyanatopropyl)quinuclidinium trifluoromethanesulfonate] showed an IC50 of 115 µM.

— US10213407B2, “Compounds and methods for inhibiting production of trimethylamine” (The Procter & Gamble Company, priority 2015, dated 2019)
